Values quoted from earlier work, collected in patent US20070105848A1 (priority 2005, published 2007).

Tests used:
methemoglobinemia = conditions: i.v., 1 mg/kg body weight
adult humans = conditions: one week to 19 months, 100 mg b.i.d. or t.i.d. orally or 100 mg i.v.
[1] = target: Plasmodium falciparum glutathione reductase (Plasmodium falciparum, UniProt O15770)
Chain of Plasmodium falciparum glutathione reductase (O15770 47-546): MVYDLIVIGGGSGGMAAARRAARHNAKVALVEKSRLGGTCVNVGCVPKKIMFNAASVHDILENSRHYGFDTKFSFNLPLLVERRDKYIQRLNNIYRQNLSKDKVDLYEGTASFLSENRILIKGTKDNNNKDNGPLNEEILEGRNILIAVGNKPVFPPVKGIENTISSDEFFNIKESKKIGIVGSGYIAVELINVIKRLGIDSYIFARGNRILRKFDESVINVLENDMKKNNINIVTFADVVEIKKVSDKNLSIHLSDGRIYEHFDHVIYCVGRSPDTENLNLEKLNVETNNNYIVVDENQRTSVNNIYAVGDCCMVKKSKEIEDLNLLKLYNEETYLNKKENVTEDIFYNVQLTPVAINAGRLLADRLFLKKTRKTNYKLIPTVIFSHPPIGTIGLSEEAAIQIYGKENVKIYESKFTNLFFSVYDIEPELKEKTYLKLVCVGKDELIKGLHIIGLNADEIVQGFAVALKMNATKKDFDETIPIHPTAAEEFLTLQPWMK

Structure (SMILES): CN(C)c1ccc2nc3ccc(N(C)C)cc3[s+]c2c1.[Cl-] [Methylene blue, 3,7-bis(dimethylamino)-phenothiazin-5-ium chloride]
- antimalarial activity (malaria): intrinsic antimalarial activity
- chloroquine sensitization (malaria): can act as a chloroquine sensitizer
- treatment of methemoglobinemia (methemoglobinemia): effective
- side effects on prolonged administration (adult humans): minimal side effects
- inhibition of Plasmodium falciparum glutathione reductase [1]: selective inhibitor
